Values of other authors in patent publication US6908953B2, “Polymerizable compositions based on epoxides” (ESPE Dental AG, priority 1998, dated 2005).

Assays:
[1] = in vitro tests, prior-art epoxide monomers
[2] = prior-art epoxide monomers

SMILES | Mutagenic properties [1] | Cytotoxicity [2]
O=C(OCC1CCC2OC2C1)C1CCC2OC2C1 (stereo not shown) [3,4-epoxycyclohexyl-methyl 3,4-epoxycyclohexanecarboxylate] | mutagenic properties | highly cytotoxic
O=C(CCCCC(=O)OC1CCC2OC2C1)OC1CCC2OC2C1 (stereo not shown) [bis(3,4-epoxycyclohexyl adipate)] | mutagenic properties | highly cytotoxic
